Like-named read-outs stand apart in the source and are kept apart here.
Assays:
[1] = test system: H929 cells; test: Cell viability assay (H929 10 FBS); assay type: cell-based; details: Homo sapiens, NCI-H929, 24 hours, read-out: H929_10FBS IC50
Procedure, shortened: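 H929 cells, 4000/well, in RPMI 1640 with 10% FBS, sodium pyruvate, HEPES and glucose were exposed to compound 24 h at 37 °C. Viability read as luminescence after 30-60 min at RT with CellTiter-Glo or ATPlite 1 Step.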

[2] = biological target: MCL-1 (Homo sapiens (Human), UniProt Q07820); test: Cell free Mcl-1:Bim affinity assay (fluorescence polarization competition); assay type: binding; details: 15 nM MCL-1, 5 nM FITC-Bim, 1 hour at room temperature, read-out: BIM_Ki
Procedure, shortened: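 Compounds competed with FITC-labelled Bim peptide (5 nM) for MCL-1 (15 nM) in HEPES/NaCl buffer with 1% DMSO, 1 h at room temperature. Fluorescence polarization (535 nm emission) gave % inhibition versus DMSO and positive controls; IC50 from 10-point curves, converted to Ki by the Nikolovska-Coleska equation.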

Sequence of MCL-1 (Q07820 whole entry): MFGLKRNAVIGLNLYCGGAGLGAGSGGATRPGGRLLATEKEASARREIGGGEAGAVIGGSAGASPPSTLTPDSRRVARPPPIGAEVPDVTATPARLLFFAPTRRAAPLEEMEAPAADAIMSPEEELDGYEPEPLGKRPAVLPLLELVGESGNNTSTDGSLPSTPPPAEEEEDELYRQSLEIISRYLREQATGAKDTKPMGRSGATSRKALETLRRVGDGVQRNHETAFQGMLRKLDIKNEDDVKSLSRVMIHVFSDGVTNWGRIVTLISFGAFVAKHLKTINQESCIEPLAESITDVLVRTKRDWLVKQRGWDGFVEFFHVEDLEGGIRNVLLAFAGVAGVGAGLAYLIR

SMILES | IC50 [1] [nM] | Ki ([2]; class symbols) [nM] | Ki ([2]; numeric values) [nM]
O=C(NS(=O)(=O)c1ccc2c(c1)N(CC1CCC1)C[C@@]1(CCCc3cc(Cl)ccc31)CO2)C1CCCC1 [Example 13, N-[(3S)-6′-Chloro-5-(cyclobutylmethyl)spiro[2,4-dihydro-1,5-benzoxazepine-3,1′-tetralin]-7-yl]sulfonylcyclopentanecarboxamide] | > 1000 |  | 22
O=C1Cc2cccc(c2)S(=O)(=O)C[C@@H]2CC[C@H]2CN2C[C@@]3(CCCc4cc(Cl)ccc43)COc3ccc(cc32)S(=O)(=O)N1 [Example 98, (3R,6R,24S)-6′-Chloro-8,8,17,17-tetraoxo-spiro[22-oxa-8,17-dithia-1,16-diazapentacyclo[16.7.2.19,13.03,6.021,26]octacosa-9(28),10,12,18(27),19,21(26)-hexaene-24,1′-tetralin]-15-one] | > 1000 | 1 to 100 | 
CCOC(=O)N(C)[C@@H]1/C=C/CN(C)C(C)(C)C(=O)NS(=O)(=O)c2ccc3c(c2)N(C[C@@H]2CC[C@H]21)C[C@@]1(CCCc2cc(Cl)ccc21)CO3 [Example 253, Ethyl N-methyl-N-[(3R,6R,7R,8E,22S)-6′-chloro-11,12,12-trimethyl-13,15,15-trioxo-spiro[20-oxa-15-thia-1,11,14-triazatetracyclo[14.7.2.03,6.019,24]pentacosa-8,16(25),17,19(24)-tetraene-22,1′-tetralin]-7-yl]carbamate] | > 1000 | 1 to 100 | 

Results, then the molecule that gave them:

IC50 [1] [nM] | Ki ([2]; class symbols) [nM] | Ki ([2]; numeric values) [nM] | SMILES
< 500 | < 1 |  | CNCCNC(=O)O[C@H]1/C=C/COC(C)(C)C(=O)NS(=O)(=O)c2ccc3c(c2)N(C[C@@H]2CC[C@H]21)C[C@@]1(CCCc2cc(Cl)ccc21)CO3 [Example 157, [(3R,6R,7S,8E,22S)-6′-Chloro-12,12-dimethyl-13,15,15-trioxo-spiro[11,20-dioxa-15-thia-1,14-diazatetracyclo[14.7.2.03,6.019,24]pentacosa-8,16,18,24-tetraene-22,1′-tetralin]-7-yl] N-[2-(methylamino)ethyl]carbamate]
< 500 | < 1 |  | CNC(=O)O[C@H]1/C=C/COC2(CC2)C(=O)NS(=O)(=O)c2ccc3c(c2)N(C[C@@H]2CC[C@H]21)C[C@@]1(CCCc2cc(Cl)ccc21)CO3 [Example 227, [(3R,6R,7S,8E,22S)-6′-Chloro-12,12-ethylene-13,15,15-trioxo-spiro[11,20-dioxa-15-thia-1,14-diazatetracyclo[14.7.2.03,6.019,24]pentacosa-8,16,18,24-tetraene-22,1′-tetralin]-7-yl] N-methylcarbamate]
< 500 | < 1 |  | CC1(C)OC/C=C/[C@H](OC(=O)N[C@@H]2CCOC2)[C@@H]2CC[C@H]2CN2C[C@@]3(CCCc4cc(Cl)ccc43)COc3ccc(cc32)S(=O)(=O)NC1=O [Example 62, [(3R,6R,7S,8E,22S)-6′-Chloro-12,12-dimethyl-13,15,15-trioxo-spiro[11,20-dioxa-15-thia-1,14-diazatetracyclo[14.7.2.03,6.019,24]pentacosa-8,16,18,24-tetraene-22,1′-tetralin]-7-yl] N-[(3R)-tetrahydrofuran-3-yl]carbamate]
< 500 | < 1 |  | CON(C)C(=O)O[C@H]1/C=C/COC(C)(C)C(=O)NS(=O)(=O)c2ccc3c(c2)N(C[C@@H]2CC[C@H]21)C[C@@]1(CCCc2cc(Cl)ccc21)CO3 [Example 63, [(3R,6R,7S,8E,22S)-6′-Chloro-12,12-dimethyl-13,15,15-trioxo-spiro[11,20-dioxa-15-thia-1,14-diazatetracyclo[14.7.2.03,6.019,24]pentacosa-8,16,18,24-tetraene-22,1′-tetralin]-7-yl] N-methoxy-N-methyl-carbamate]

Reference: US11130769B2 (Prelude Therapeutics Incorporated, priority 2018, dated 2021)
